Data: patent US6274715A, “Tricyclic erythromycin derivatives” (priority 1997, dated 2001)
Values after ≈ are worked out from the molar mass of the structure shown.

What was measured:
Type in all cases: cell-based
[1] = tested on: PSEUDOMONAS AERUGINOSA BMH10; assay: In vitro antibacterial activity, MIC, BHI agar dilution; settings: P. aeruginosa BMH10, unit assumed
[2] = tested on: STAPHYLOCOCCUS AUREUS A5177; assay: as above; settings: S. aureus A5177, unit assumed
[3] = tested on: KLEBSIELLA PNEUMONIAE ATCC 8045; assay: as above; settings: K. pneumoniae ATCC 8045, unit assumed
[4] = tested on: PSEUDOMONAS AERUGINOSA K799/61; assay: as above; settings: P. aeruginosa K799/61, unit assumed
[5] = tested on: PSEUDOMONAS AERUGINOSA DPHD-5263; assay: as above; settings: P. aeruginosa DPHD-5263, unit assumed
[6] = tested on: ACINETOBACTER CALCOACETICUS CMX 669; assay: as above; settings: A. calcoaceticus CMX 669, unit assumed
ESCHERICHIA COLI H560 = assay: as above; settings: E. coli H560, unit assumed
[7] = tested on: STAPHYLOCOCCUS AUREUS NCTC10649M; assay: as above; settings: S. aureus NCTC10649M, unit assumed
[8] = tested on: STAPHYLOCOCCUS EPIDERMIDIS 3519; settings: S. epidermidis 3519; BHI agar; unit assumed
[9] = tested on: STAPHYLOCOCCUS AUREUS A-5278; assay: In vitro antibacterial activity, MIC, BHI agar dilution
ESCHERICHIA COLI DC-2 = assay: as above; settings: E. coli DC-2, unit assumed
[10] = tested on: STAPHYLOCOCCUS AUREUS CMX 642A; assay: as above; settings: S. aureus CMX 642A, unit assumed
ESCHERICHIA COLI JUHL = settings: E. coli JUHL; BHI agar; unit assumed
[11] = tested on: PSEUDOMONAS AERUGINOSA 5007; assay: In vitro antibacterial activity, MIC, BHI agar dilution; settings: P. aeruginosa 5007, unit assumed
[12] = tested on: ENTEROBACTER AEROGENES ATCC 13048; assay: as above; settings: E. aerogenes ATCC 13048, unit assumed
[13] = tested on: STAPHYLOCOCCUS AUREUS ATCC 6538P; assay: as above; settings: S. aureus ATCC 6538P, 35-37° C., 20 to 24 hours, unit assumed
[14] = tested on: MYCOBACTERIUM SMEGMATIS ATCC 114; assay: as above; settings: M. smegmatis ATCC 114, unit assumed
ESCHERICHIA COLI KNK 437 = settings: E. coli KNK 437; BHI agar; unit assumed
[15] = tested on: STREPTOCOCCUS PYOGENES 930; assay: In vitro antibacterial activity, MIC, BHI agar dilution; settings: S. pyogenes 930, unit assumed
[16] = tested on: PROVIDENCIA STUARTII CMX 640; settings: P. stuartii CMX 640; BHI agar; unit assumed
EN[…] ATCC 8043 = assay: In vitro antibacterial activity, MIC, BHI agar dilution; settings: E. faecium ATCC 8043, unit assumed
How it was run: (§1)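 Agar dilution in BHI: plates inoculated with 1:100 dilutions of organisms (1:10 for Micrococcus and Streptococcus), incubated 20-24 h at 35-37° C, then inspected for the lowest inhibitory concentration against a drug-free growth control.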

STR[…] 508 = assay: as above; settings: S. agalactiae CMX 508, unit assumed
How it was run: as §1

M[…] ATCC 4698 = assay: as above
How it was run: as §1

M[…] ATCC 9341 = assay: as above; settings: M. luteus ATCC 9341, unit assumed
How it was run: as §1

ESCHERICHIA COLI SS = assay: as above; settings: E. coli SS
PSEUDOMONAS CEPACIA 296I = assay: as above; settings: P. cepacia 296I, unit assumed
[17] = tested on: STREPTOCOCCUS BOVIS A-5169; assay: as above
[18] = tested on: PSEUDOMONAS AERUGINOSA K799/WT; assay: as above; settings: P. aeruginosa K799/WT, unit assumed
[19] = tested on: STAPHYLOCOCCUS AUREUS CMX 553; assay: as above; settings: S. aureus CMX 553, unit assumed
[20] = tested on: PSEUDOMONAS AERUGINOSA DPHD-2862; assay: as above; settings: P. aeruginosa DPHD-2862, unit assumed
[21] = tested on: STREPTOCOCCUS PYOGENES EES61; assay: as above
[22] = tested on: STREPTOCOCCUS PYOGENES PIU 2548; assay: as above; settings: S. pyogenes PIU 2548, unit assumed
CANDIDA ALBICANS CCH 442 = assay: as above; settings: C. albicans CCH 442, unit assumed
[23] = tested on: STAPHYLOCOCCUS AUREUS 1775; assay: as above; settings: S. aureus 1775, unit assumed
[24] = M. luteus ATCC 4698, unit assumed
[25] = S. pyogenes EES61, unit assumed

Structure (SMILES)	MIC [1]	MIC [2]	MIC [3]	MIC [5]	MIC [6]	MIC (ESCHERICHIA COLI H560)	MIC [7]	MIC [8]	MIC (ESCHERICHIA COLI DC-2)	MIC [10]	MIC (ESCHERICHIA COLI JUHL)	MIC [11]	MIC [12]	MIC [13]	MIC [14]	MIC (ESCHERICHIA COLI KNK 437)	MIC [15]	MIC [16]	MIC (EN[…] ATCC 8043)	MIC (M[…] ATCC 9341)	further results
CC[C@H]1OC(=O)[C@H](C)C(=O)[C@H](C)[C@@H](O[C@@H]2O[C@H](C)C[C@H](N(C)C)[C@H]2O)[C@](C)(OC)C[C@@H](C)C2=N[C@H](COCc3ccc(F)cc3)CN3C(=O)O[C@@]1(C)[C@H]3[C@H]2C [Example 101]	> 100 µg/mL	0.05 µg/mL (≈ 0.0644 µM)	> 100 µg/mL	> 100 µg/mL	100 µg/mL (≈ 129 µM)	100 µg/mL (≈ 129 µM)	0.05 µg/mL (≈ 0.0644 µM)	0.1 µg/mL (≈ 0.129 µM)	> 100 µg/mL	0.1 µg/mL (≈ 0.129 µM)	> 100 µg/mL	> 100 µg/mL	> 100 µg/mL	0.05 µg/mL (≈ 0.0644 µM)	0.39 µg/mL (≈ 0.503 µM)	> 100 µg/mL	> 100 µg/mL	> 100 µg/mL	≤ 0.005 µg/mL	≤ 0.005 µg/mL	MIC [4]: 1.56 µg/mL (≈ 2.01 µM); MIC ([9]; S. aureus A-5278, unit assumed): > 100 µg/mL; MIC (STR[…] 508): ≤ 0.005 µg/mL; MIC (M[…] ATCC 4698; [24]): 0.02 µg/mL (≈ 0.0258 µM); MIC (ESCHERICHIA COLI SS; unit assumed): 0.2 µg/mL (≈ 0.258 µM); MIC (PSEUDOMONAS CEPACIA 296I): 100 µg/mL (≈ 129 µM); MIC ([17]; S. bovis A-5169, unit assumed): ≤ 0.005 µg/mL; MIC [18]: > 100 µg/mL; MIC [19]: 0.05 µg/mL (≈ 0.0644 µM); MIC [20]: > 100 µg/mL; MIC [21, 25]: ≤ 0.005 µg/mL; MIC [22]: 0.05 µg/mL (≈ 0.0644 µM); MIC (CANDIDA ALBICANS CCH 442): > 100 µg/mL; MIC [23]: > 100 µg/mL
CC[C@H]1OC(=O)[C@H](C)C(=O)[C@H](C)[C@@H](O[C@@H]2O[C@H](C)C[C@H](N(C)C)[C@H]2O)[C@](C)(OC)C[C@@H](C)C2=NC3CN(CCOc4ccccc4)CC3N3C(=O)O[C@@]1(C)[C@H]3[C@H]2C (stereo partly shown) [Example 128]	> 100 µg/mL	0.39 µg/mL (≈ 0.488 µM)	> 100 µg/mL	> 100 µg/mL	100 µg/mL (≈ 125 µM)	> 100 µg/mL	0.39 µg/mL (≈ 0.488 µM)	0.39 µg/mL (≈ 0.488 µM)	> 100 µg/mL	0.39 µg/mL (≈ 0.488 µM)	100 µg/mL (≈ 125 µM)	> 100 µg/mL	> 100 µg/mL	0.39 µg/mL (≈ 0.488 µM)	1.56 µg/mL (≈ 1.95 µM)	> 100 µg/mL	> 100 µg/mL	> 100 µg/mL	0.1 µg/mL (≈ 0.125 µM)	0.05 µg/mL (≈ 0.0626 µM)	MIC [4]: 6.2 µg/mL (≈ 7.76 µM); MIC ([9]; S. aureus A-5278, unit assumed): > 100 µg/mL; MIC (M[…] ATCC 4698; [24]): 0.39 µg/mL (≈ 0.488 µM); MIC (ESCHERICHIA COLI SS; unit assumed): 1.56 µg/mL (≈ 1.95 µM); MIC (PSEUDOMONAS CEPACIA 296I): > 100 µg/mL; MIC ([17]; S. bovis A-5169, unit assumed): ≤ 0.005 µg/mL; MIC [18]: > 100 µg/mL; MIC [19]: 0.39 µg/mL (≈ 0.488 µM); MIC [20]: > 100 µg/mL; MIC [21, 25]: ≤ 0.005 µg/mL; MIC [22]: 0.78 µg/mL (≈ 0.976 µM); MIC (CANDIDA ALBICANS CCH 442): > 100 µg/mL; MIC [23]: > 100 µg/mL
CC[C@H]1OC(=O)[C@H](C)C(=O)[C@H](C)[C@@H](O[C@@H]2O[C@H](C)C[C@H](N(C)C)[C@H]2O)[C@](C)(OC)C[C@@H](C)C2=NC(COCc3ccc(Cl)cc3)C(COCc3ccc(Cl)cc3)N3C(=O)O[C@@]1(C)[C@H]3[C@H]2C (stereo partly shown) [Example 147]	> 100 µg/mL	1.56 µg/mL (≈ 1.65 µM)	> 100 µg/mL	> 100 µg/mL	> 100 µg/mL	> 100 µg/mL	1.56 µg/mL (≈ 1.65 µM)	1.56 µg/mL (≈ 1.65 µM)	> 100 µg/mL	1.56 µg/mL (≈ 1.65 µM)	> 100 µg/mL	> 100 µg/mL	> 100 µg/mL	1.56 µg/mL (≈ 1.65 µM)	1.56 µg/mL (≈ 1.65 µM)	> 100 µg/mL	3.1 µg/mL (≈ 3.27 µM)	> 100 µg/mL	0.78 µg/mL (≈ 0.824 µM)	0.39 µg/mL (≈ 0.412 µM)	MIC ([9]; S. aureus A-5278, listed as Ex 147, unit assumed): 6.2 µg/mL (≈ 6.55 µM); MIC (STR[…] 508): 0.78 µg/mL (≈ 0.824 µM); MIC (M[…] ATCC 4698; M. luteus ATCC 4698, listed as Ex 147, unit assumed): 3.1 µg/mL (≈ 3.27 µM); MIC (ESCHERICHIA COLI SS; listed as Ex 147, unit assumed): > 100 µg/mL; MIC (PSEUDOMONAS CEPACIA 296I): > 100 µg/mL; MIC ([17]; S. bovis A-5169, listed as Ex 147, unit assumed): 0.39 µg/mL (≈ 0.412 µM); MIC [18]: > 100 µg/mL; MIC [19]: 1.56 µg/mL (≈ 1.65 µM); MIC [20]: > 100 µg/mL; MIC ([21]; S. pyogenes EES61, listed as Ex 147, unit assumed): 0.78 µg/mL (≈ 0.824 µM); MIC [22]: 3.1 µg/mL (≈ 3.27 µM); MIC (CANDIDA ALBICANS CCH 442): 50 µg/mL (≈ 52.8 µM); MIC [23]: 12.5 µg/mL (≈ 13.2 µM)
